Read-outs that look alike come from different tables or passages of the source.
What was measured:
S. aureus [1] = assay: Minimal bactericidal concentration; format: cell-based, Staphylococcus aureus; details: reduces plating efficiency more than 99.9%; minimal exposure to light
Method in brief: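 Bacteria exposed to porphyrin derivatives above MIC as in the MIC assay, then plated on LB or LB+Tween 80 agar. MBC taken as the concentration reducing plating efficiency by more than 99.9%; light exposure kept minimal.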

Staphylococcus carnosus = assay: Disc diffusion sensitivity test; format: cell-based; details: 50 μg disc
N. meningitidis = assay: Disc diffusion sensitivity test; format: cell-based; details: disc ~50 μg MP
E. coli [2] = assay: Disc diffusion sensitivity test; format: cell-based, Escherichia coli
M tuber. H37Rv = assay: Disc diffusion sensitivity test; format: cell-based, Mycobacterium tuberculosis; details: disc ~50 μg MP
L. monocytogenes = assay: Minimal inhibitory concentration; format: cell-based; details: 20 to 24 hours (Table 5)
S. aureus [3] = system: S. aureus
[4] = system: Streptococcus pyogenes JRS4; format: cell-based
S. aureus [5] = assay: Disc diffusion sensitivity test; format: cell-based, Staphylococcus aureus
N. gonorrhoeae = assay: Minimal inhibitory concentration; format: cell-based, Neisseria gonorrhoeae; details: N. gonorrhoeae MS111; 20 to 24 hours (Table 5)
Staphylococcus xylolus = assay: Disc diffusion sensitivity test; format: cell-based; details: 50 μg disc
M. bovis = format: cell-based, Mycobacterium bovis; details: disc ~50 μg MP
E. coli [6] = format: cell-based, Escherichia coli
Vero cells = assay: Toxicity to mammalian cell monolayers; details: 0.5 mg in 1 mL DMEM; 24 hrs
[7] = system: methicillin resistant S. aureus IR2419; format: cell-based, Staphylococcus aureus; details: 1 μg/ml, below the MIC value
Neisseria meningitidis = assay: Minimal inhibitory concentration; format: cell-based

C=CC1=C(C)C2=Cc3c(C=C)c(C)c4[n]3[Ga][n]3c(c(C)c(CCC(=O)O)c3=CC3=NC(=C4)C(C)=C3CCC(=O)O)=CC1=N2 [Ga-PPIX, Gallium (III) protoporphyrin IX chloride] was tested, and the “Minimal bactericidal concentration (MBC)” value (S. aureus [1]) was greater than 13, the “sensitive strains / strains tested (inhibition zones larger or equal 20 mm)” value (Staphylococcus carnosus) was 1/1 and the “diameter (mm) of the inhibition zone” value (N. meningitidis) was 24 mm. For the same compound, the “diameter (mm) of the inhibition zone” value (E. coli [2]; E. coli, disc ~50 μg MP) was 24 mm, the “sensitive strains / strains tested (inhibition zones larger or equal 20 mm)” value (E. coli [2]; Escherichia coli, 50 μg disc) was 16/18 and the “diameter (mm) of the inhibition zone” value (M tuber. H37Rv) was 20 mm. The spontaneous resistance (Gram-negative bacteria) was “gave rise to spontaneous resistant colonies”, the MIC (L. monocytogenes) was 0.2 µg/mL and the spontaneous resistance (S. aureus [3]) was “did not produce spontaneous resistant mutants”. For the same compound, the sensitivity [4] was “resistant”, the “diameter (mm) of the inhibition zone” value (S. aureus [5]; S. aureus, disc ~50 μg MP) was 22 mm and the “sensitive strains / strains tested (inhibition zones larger or equal 20 mm)” value (S. aureus [5]; Staphylococcus aureus, 50 μg disc) was 9/9. The MIC (N. gonorrhoeae) was 0.1 µg/mL, the “sensitive strains / strains tested (inhibition zones larger or equal 20 mm)” value (Staphylococcus xylolus) was 1/1 and the “diameter (mm) of the inhibition zone” value (M. bovis) was 35 mm. For the same compound, the MIC (E. coli [6]; E. coli DH-5 alpha hemA (Table 6)) was greater than 10 µg/mL, the sensitivity (E. coli [6]; E. coli K-12 (hemPR+) wild type and hemA mutant, with delta-aminolevulinic acid) was “fully sensitive” and the “TonB dependence of inhibition” value (E. coli [6]; E. coli TonB mutant overexpressing HemR) was “TonB activity is necessary”. For the same compound, the MIC (E. coli [6]; E. coli dh-5 alpha hemA(hemR+) (Table 6)) was less than 0.1 µg/mL, the “MIC Ga-PPIX” value (E. coli [6]; EC06 (MC1061, ΔccmABCDEFGH), NB) was greater than 20 µg/mL and the “MIC Ga-PPIX” value (E. coli [6]; EC06 (MC1061, ΔccmABCDEFGH), NBD[50 μM]) was greater than 20 µg/mL. For the same compound, the “MIC Ga-PPIX” value (E. coli [6]; GO103 (GR70N, ΔcydAB), NB) was 10 µg/mL, the “MIC Ga-PPIX” value (E. coli [6]; GO103 (GR70N, ΔcydAB), NBD[50 μM]) was 6.4 µg/mL and the “MIC Ga-PPIX” value (E. coli [6]; GP104 (GR70N, ΔcyoABCDE), NB) was 10 µg/mL. For the same compound, the “MIC Ga-PPIX” value (E. coli [6]; GP104 (GR70N, ΔcyoABCDE), NBD[50 μM]) was 10 µg/mL, the “MIC Ga-PPIX” value (E. coli [6]; GR70N w.t., NB) was 10 µg/mL and the “MIC Ga-PPIX” value (E. coli [6]; GR70N w.t., NBD[50 μM]) was 10 µg/mL. For the same compound, the “MIC Ga-PPIX” value (E. coli [6]; IR2885 (GO104 [phemR+]), NB) was less than 0.2 µg/mL, the “MIC Ga-PPIX” value (E. coli [6]; IR2885 (GO104 [phemR+]), NBD[50 μM]) was less than 0.02 µg/mL and the “MIC Ga-PPIX” value (E. coli [6]; IR2897 (GR70N [phemR+]), NB) was greater than 10 µg/mL. The “MIC Ga-PPIX” value (E. coli [6]; IR2897 (GR70N [phemR+]), NBD[50 μM]) was less than 0.1 µg/mL, the “MIC Ga-PPIX” value (E. coli [6]; IR2898 (GO103 [phemR+]), NB) was less than 0.2 µg/mL and the “MIC Ga-PPIX” value (E. coli [6]; IR2898 (GO103 [phemR+]), NBD[50 μM]) was less than 0.02 µg/mL. The “MIC Ga-PPIX” value (E. coli [6]; IR2899 (MWC215 [phemR+]), NB) was greater than 10 µg/mL, the “MIC Ga-PPIX” value (E. coli [6]; IR2899 (MWC215 [phemR+]), NBD[50 μM]) was less than 0.1 µg/mL and the “MIC Ga-PPIX” value (E. coli [6]; IR2976 (EC06 [phemR+]), NB) was greater than 30 µg/mL. For the same compound, the “MIC Ga-PPIX” value (E. coli [6]; IR2976 (EC06 [phemR+]), NBD[50 μM]) was 0.5 µg/mL, the “MIC Ga-PPIX” value (E. coli [6]; MWC215 (GR70N, ndh), NB) was 10 µg/mL and the “MIC Ga-PPIX” value (E. coli [6]; MWC215 (GR70N, ndh), NBD[50 μM]) was 10 µg/mL. For the same compound, the “higher MIC under iron-sufficient growth conditions” value (E. coli [6]; all other mutants) was 50 fold, the “sensitivity without an iron chelator” value (E. coli [6]; cytochrome cd and cyo single mutants) was “still sensitive” and the “sensitivity concentration of HemR-plasmid strains” value (E. coli [6]; slight iron restriction (0.05 mM dipyridyl)) was “less than 0.5 μg/ml”. The “cytotoxic and/or morphological changes” value (Vero cells) was “No visible cytotoxic and/or morphological changes were observed”, the “growth in presence of Ga-PPIX” value [7] was “inhibited growth of S. aureus in the first 20 hours of growth” and the MIC (Neisseria meningitidis; N. meningitidis IR1072, 20 to 24 hours (Table 5)) was 0.1 µg/mL. It also gave an MIC (Neisseria meningitidis; Neisseria meningitidis (Table 4)) of less than 0.1 µg/mL.
